Columns and labels:
Assay type in all cases: functional
OVCAR-3 = experiment: Growth inhibition of human OVCAR3 cells assessed as cell growth at 10^-8 M incubated for 48 hrs by sulforhodamine B assay relative to control; conditions: OVCAR-3, 48 h, read-out: Activity
OVCAR-4 = experiment: Growth inhibition of human OVCAR4 cells assessed as cell growth at 10^-6 M incubated for 48 hrs by sulforhodamine B assay relative to control; conditions: OVCAR-4, 48 h, read-out: Activity
T47D [1] = experiment: Growth inhibition of human T47D cells assessed as cell growth at 10^-8 M incubated for 48 hrs by sulforhodamine B assay relative to control; conditions: read-out: Activity
SNB-19 = experiment: Growth inhibition of human SNB19 cells assessed as cell growth at 10^-4 M incubated for 48 hrs by sulforhodamine B assay relative to control; conditions: SNB-19, 48 h, read-out: Activity
HT-29 = experiment: Growth inhibition of human HT-29 cells assessed as cell growth at 10^-5 M incubated for 48 hrs by sulforhodamine B assay relative to control; conditions: HT-29, 48 h, read-out: Activity
MDA-MB-468 = experiment: Growth inhibition of human MDA-MB-468 cells assessed as cell growth at 10^-4 M incubated for 48 hrs by sulforhodamine B assay relative to control; conditions: MDA-MB-468, 48 h, read-out: Activity
RXF 393 = experiment: Growth inhibition of human RXF393 cells assessed as cell growth at 10^-5 M incubated for 48 hrs by sulforhodamine B assay relative to control; conditions: RXF 393, 48 h, read-out: Activity
T47D [2] = experiment: Growth inhibition of human T47D cells assessed as cell growth at 10^-5 M incubated for 48 hrs by sulforhodamine B assay relative to control; conditions: read-out: Activity
RPMI-8226 = experiment: Growth inhibition of human RPMI8226 cells assessed as cell growth at 10^-5 M incubated for 48 hrs by sulforhodamine B assay relative to control; conditions: RPMI-8226, 48 h, read-out: Activity
OVCAR-8 = experiment: Growth inhibition of human OVCAR8 cells assessed as cell growth at 10^-5 M incubated for 48 hrs by sulforhodamine B assay relative to control; conditions: OVCAR-8, 48 h, read-out: Activity
786-0 = experiment: Growth inhibition of human 786-0 cells assessed as cell growth at 10^-5 M incubated for 48 hrs by sulforhodamine B assay relative to control; conditions: 786-0, 48 h, read-out: Activity
A549 = experiment: Growth inhibition of human A549/ATCC cells assessed as cell growth at 10^-5 M incubated for 48 hrs by sulforhodamine B assay relative to control; conditions: A549, 48 h, read-out: Activity
UO-31 [3] = experiment: Growth inhibition of human UO31 cells assessed as cell growth at 10^-4 M incubated for 48 hrs by sulforhodamine B assay relative to control; conditions: UO-31, 48 h, read-out: Activity
HOP-92 = experiment: Growth inhibition of human HOP92 cells assessed as cell growth at 10^-5 M incubated for 48 hrs by sulforhodamine B assay relative to control; conditions: HOP-92, 48 h, read-out: Activity
Malme-3M = experiment: Growth inhibition of human MALME-3M cells assessed as cell growth at 10^-4 M incubated for 48 hrs by sulforhodamine B assay relative to control; conditions: read-out: Activity
Hs-578T = experiment: Growth inhibition of human Hs 578T cells assessed as cell growth at 10^-4 M incubated for 48 hrs by sulforhodamine B assay relative to control; conditions: read-out: Activity
M14 = experiment: Growth inhibition of human M14 cells assessed as cell growth at 10^-4 M incubated for 48 hrs by sulforhodamine B assay relative to control; conditions: M14, 48 h, read-out: Activity
HL-60(TB) = experiment: Growth inhibition of human HL-60(TB) cells assessed as cell growth at 10^-4 M incubated for 48 hrs by sulforhodamine B assay relative to control; conditions: HL-60, 48 h, read-out: Activity
SF-295 = experiment: Growth inhibition of human SF295 cells assessed as cell growth at 10^-4 M incubated for 48 hrs by sulforhodamine B assay relative to control; conditions: SF-295, 48 h, read-out: Activity
SNB-75 [4] = experiment: Growth inhibition of human SNB75 cells assessed as cell growth at 10^-5 M incubated for 48 hrs by sulforhodamine B assay relative to control; conditions: SNB-75, 48 h, read-out: Activity
LOX IMVI = experiment: Growth inhibition of human LOXIMVI cells assessed as cell growth at 10^-6 M incubated for 48 hrs by sulforhodamine B assay relative to control; conditions: read-out: Activity
COLO 205 = experiment: Growth inhibition of human COLO205 cells assessed as cell growth at 10^-4 M incubated for 48 hrs by sulforhodamine B assay relative to control; conditions: COLO 205, 48 h, read-out: Activity
BT-549 = experiment: Growth inhibition of human BT549 cells assessed as cell growth at 10^-4 M incubated for 48 hrs by sulforhodamine B assay relative to control; conditions: BT-549, 48 h, read-out: Activity
SNB-75 [5] = experiment: Growth inhibition of human SNB75 cells assessed as cell growth at 10^-4 M incubated for 48 hrs by sulforhodamine B assay relative to control; conditions: SNB-75, 48 h, read-out: Activity
UO-31 [6] = experiment: Growth inhibition of human UO31 cells assessed as cell growth at 10^-5 M incubated for 48 hrs by sulforhodamine B assay relative to control; conditions: UO-31, 48 h, read-out: Activity
IGROV-1 = experiment: Growth inhibition of human IGROV1 cells assessed as cell growth at 10^-5 M incubated for 48 hrs by sulforhodamine B assay relative to control; conditions: IGROV-1, 48 h, read-out: Activity
NCI/ADR-RES = experiment: Growth inhibition of human NCI/ADR-RES cells assessed as cell growth at 10^-6 M incubated for 48 hrs by sulforhodamine B assay relative to control; conditions: read-out: Activity
MDA-MB-435 = experiment: Growth inhibition of human MDA-MB-435 cells assessed as cell growth at 10^-4 M incubated for 48 hrs by sulforhodamine B assay relative to control; conditions: MDA-MB-435, 48 h, read-out: Activity
SF-539 = experiment: Growth inhibition of human SF539 cells assessed as cell growth at 10^-5 M incubated for 48 hrs by sulforhodamine B assay relative to control; conditions: SF-539, 48 h, read-out: Activity
HCC 2998 = experiment: Growth inhibition of human HCC2998 cells assessed as cell growth at 10^-4 M incubated for 48 hrs by sulforhodamine B assay relative to control; conditions: HCC 2998, 48 h, read-out: Activity
EKVX = experiment: Growth inhibition of human EKVX cells assessed as cell growth at 10^-4 M incubated for 48 hrs by sulforhodamine B assay relative to control; conditions: read-out: Activity
UACC-257 = experiment: Growth inhibition of human UACC257 cells assessed as cell growth at 10^-4 M incubated for 48 hrs by sulforhodamine B assay relative to control; conditions: UACC-257, 48 h, read-out: Activity
SF-268 = experiment: Growth inhibition of human SF268 cells assessed as cell growth at 10^-4 M incubated for 48 hrs by sulforhodamine B assay relative to control; conditions: SF-268, 48 h, read-out: Activity

| Structure (SMILES) | growth at 0.01 µM (OVCAR-3) | growth at 1 µM (OVCAR-4) | growth at 0.01 µM (T47D [1]) | growth at 100 µM (SNB-19) | growth at 10 µM (HT-29) | growth at 100 µM (MDA-MB-468) | growth at 10 µM (RXF 393) | growth at 10 µM (T47D [2]) | growth at 10 µM (RPMI-8226) | growth at 10 µM (OVCAR-8) | growth at 10 µM (786-0) | growth at 10 µM (A549) | growth at 100 µM (UO-31 [3]) | growth at 10 µM (HOP-92) | growth at 100 µM (Malme-3M) | growth at 100 µM (Hs-578T) | growth at 100 µM (M14) | growth at 100 µM (HL-60(TB)) | growth at 100 µM (SF-295) | growth at 1 µM (NCI/ADR-RES) | other results |
| --- | --- | --- | --- | --- | --- | --- | --- | --- | --- | --- | --- | --- | --- | --- | --- | --- | --- | --- | --- | --- | --- |
| C#C[C@@]1(O)[C@@H](CO)O[C@@H](n2cc(Cl)c3c(N)ncnc32)[C@@H]1O | 97 to 101% | 5 to 13% | 71 to 84% |  |  |  |  |  |  |  |  |  |  |  |  |  |  |  |  |  |  |
| C#C[C@@]1(O)[C@@H](CO)O[C@@H](n2cc(F)c3c(N)ncnc32)[C@@H]1O | 106% | 50% | 101% | -45% | 2% | -68% | -46% | -39% | -2% | -12% | -52% | -26% | -30% | -33% | -47% | 8% | -47% | -32% | -74% | 22% | growth at 10 µM (SNB-75 [4]): -90%; growth at 1 µM (LOX IMVI): 4%; growth at 100 µM (COLO 205): -63%; growth at 100 µM (BT-549): -42%; growth at 100 µM (SNB-75 [5]): -86%; growth at 10 µM (UO-31 [6]): -36%; growth at 10 µM (IGROV-1): -33%; growth at 100 µM (MDA-MB-435): -63%; growth at 10 µM (SF-539): -23%; growth at 100 µM (HCC 2998): -71%; growth at 100 µM (EKVX): -10%; growth at 100 µM (UACC-257): -30% |
| C#C[C@@]1(O)[C@@H](CO)O[C@@H](n2cc(Br)c3c(N)ncnc32)[C@@H]1O | 99 to 101% | 19 to 29% | 64 to 81% |  | 1 to 3% |  |  |  |  |  |  |  |  |  |  |  |  |  |  | 6% |  |
| C#C[C@@]1(O)[C@@H](CO)O[C@@H](n2ccc3c(N)ncnc32)[C@@H]1O | 105% | 75% | 92% | -32% |  | -62% | -45% | -61% | 7% | -32% | -18% | 4% | -37% | -29% | -76% | 2% | -88% | -38% | -44% | 45% | growth at 100 µM (SF-268): -8%; growth at 10 µM (SNB-75 [4]): -64%; growth at 1 µM (LOX IMVI): 40%; growth at 100 µM (COLO 205): -72%; growth at 100 µM (BT-549): -95%; growth at 100 µM (SNB-75 [5]): -42%; growth at 10 µM (UO-31 [6]): -55%; growth at 10 µM (IGROV-1): -19%; growth at 100 µM (MDA-MB-435): -76%; growth at 10 µM (SF-539): -48%; growth at 100 µM (HCC 2998): -78%; growth at 100 µM (EKVX): -26%; growth at 100 µM (UACC-257): -62% |
| C#C[C@@]1(O)[C@@H](CO)O[C@@H](n2cc(I)c3c(N)ncnc32)[C@@H]1O | 91 to 98% | 38 to 53% | 13 to 44% |  |  |  |  |  |  |  |  |  |  |  |  |  |  |  |  | 4 to 7% | growth at 100 µM (SF-268): -7% |

Reference: ChEMBL document CHEMBL4270599, “Synthesis of a 3'-C-ethynyl-β-d-ribofuranose purine nucleoside library: Discovery of C7-deazapurine analogs as potent antiproliferative nucleosides” (Eur J Med Chem, 2018)
